Reference: patent US20140271727A1, “METHOD OF USING AN ANTIDEPRESSANT FOR INCREASING IMMUNITY OF A SUBJECT AND TREATING CANCER” (NATIONAL YANG-MING UNIVERSITY, priority 2013, published 2014)

Experiments:
BALB/c mice = test: Tail suspension test (immobility time); assay type: in vivo, mouse; conditions: continuous mirtazapine 10 mg/kg/d (drug and always); day 22 after tumor inoculation
Protocol: Second, all animal study protocols were approved by the Institutional Animal Care and Use Committee (IACAU) of National Yang Ming University. Mirtazapine (0.25 mg) was dissolved in 0.05 ml of 0.9% NaCl plus 0.5% absolute ethanol for each mouse (i.e. 10 mg/kg.) Male BALB/c mice (initial weights 25±2 g, and purchased from the National Laboratory Animal Center, Taipei, Taiwan) were housed in the cages, five mice per cage, under a 12:12 h reverse light/dark cycle with lights off at 6 pm Animals were handled and weighed daily for a week to reduce any non-specific stress responses. […] “Wild-type” means the mice are monitored without tumor inoculation and mirtazapine treatment, drug means the mice are monitored with continuous mirtazapine treatment but without tumor inoculation, never means the mice are monitored with tumor inoculation and daily 0.05 ml of 0.9% NaCl plus 0.5% absolute ethanol treatment but without mirtazapine treatment, always means the mice are monitored with mirtazapine treatment initiated 2 weeks before the tumor inoculation, and concurrent means the mice are monitored with tumor inoculation and mirtazapine treatment on the same day, and after means the mice are monitored with mirtazapine treatment initiated 2 weeks post the tumor inoculation. […]

IL-12p70 = test: Serum sIL-12 in SCID mice; assay type: in vivo, mouse; conditions: SCID mice after mirtazapine treatment
Text: Also, Applicant divides other six-weeks-old immunodeficient male SCID mice (purchased from the National Laboratory Animal Center, Taiwan) into two groups, such as the group named “never-SCID” (hereafter called “never-SCID”) and the group named “always-SCID” (hereafter called “always-SCID”), as control groups for verifying the involvement of the immune system in the inhibition of the tumor growth by mirtazapine. Never-SCID means that the mice are monitored with tumor inoculation but without mirtazapine treatment, and always-SCID means the mice are monitored with mirtazapine treatment initiated 2 weeks before tumor inoculation. As to the quantification of interleukin-12 (hereafter called “IL-12”), the whole blood withdrawn from the pouch of each mouse was centrifuged at 600×g for 20 min, and serum was collected. The serum IL-12p70 (sIL-12) level was determined using an ELISA kit (R&D Systems, Taiwan). Identification for the lymph node cluster of differentiated CD4+ T helper and CD8+T-cytotoxic lymphocyte subsets was assayed. Briefly, the lymphocytes isolated from the lymph nodes of groins of mice were stained with phycoerythrin-conjugated antimouse CD4 (CD4-PE) monoclonal antibody and peridininchlorophyll-protein-complex-conjugated anti-mouse CD8 (CD8-PerCP) monoclonal antibody (BioLegend, USA). Lymphocyte subsets were identified by FACS analysis using a FACS Calibur flow cytometer. […]

**Q.** For `CN1CCN2c3ncccc3Cc3ccccc3C2C1` (centres unmarked) [mirtazapine], which immobility time (BALB/c mice) is on record?
**A.** significantly decreased

**Q.** And the “increase of sIL-12 level in SCID mice” value (IL-12p70)?
**A.** not found
